The source of these data is ChEMBL document CHEMBL1121624, “Synthesis, biological evaluation, and preliminary structure-activity considerations of a series of alkylphenols as intravenous anesthetic agents” (J Med Chem, 1980).

The LD50 is the dose at which mortality reaches 50%. A high value points to a less toxic substance.

Data set [1] is filed under the species Mus musculus. In words: Hypnotic activity was measured as dose which causes loss of righting reflex for a minimum period of 30s in 50% of mice; Range is 20-30. It counts as functional.
For data set [2], the species on record is Mus musculus. In words: Duration of analgesic action in mice was determined; B = brief, < 5 min. Format: functional, organism-based.
The species entered for data set [3] is Mus musculus. In words: Speed of induction of analgesia in mice was determined; I = immediate, <10 s. It counts as functional, organism-based.
Data set [4] in a line: Acute toxicity measured as median lethal dose in mice. Format: organism-based. The following applies: mouse, in vivo.
For data set [5], the species on record is Mus musculus. In words: Speed of induction of analgesia in mice was determined; S = slow, 10-15 s. It counts as functional, organism-based.
The species entered for data set [6] is Mus musculus. Briefly: Duration of analgesic action in mice was determined; L = long, >10. Format: functional, organism-based.
Data set [7] is filed under the species Mus musculus. In words: Hypnotic activity was measured as dose which causes loss of righting reflex for a minimum period of 30s in 50% of mice; Range is 10-15. Format: functional.
Data set [8] can be described thus: Acute toxicity measured as median lethal dose in mice; Range is 80-100. Format: organism-based. The settings on record: mouse, in vivo.
Data set [9] is filed under the species Mus musculus. In words: Hypnotic activity was measured as dose which causes loss of righting reflex for a minimum period of 30s in 50% of mice. Format: functional.
The species entered for data set [10] is Mus musculus. In words: Hypnotic activity was measured as dose which causes loss of righting reflex for a minimum period of 30s in 50% of mice; Range is 10-20. Format: functional.
Data set [11] in a line: Acute toxicity measured as median lethal dose in mice; Range is 100-120. It counts as organism-based. The following applies: mouse, in vivo.
The species entered for data set [12] is Mus musculus. Briefly: Hypnotic activity was measured as dose which causes loss of righting reflex for a minimum period of 30s in 50% of mice; Range is 20-40. Format: functional.
A short description of data set [13]: Acute toxicity measured as median lethal dose in mice; Range is 120-140. It counts as organism-based. The following applies: mouse, in vivo.
For data set [14], the species on record is Mus musculus. Briefly: Hypnotic activity was measured as dose which causes loss of righting reflex for a minimum period of 30s in 50% of mice; Range is 40-60. It counts as functional.
For data set [15], the species on record is Mus musculus. In words: Speed of induction of analgesia in mice was determined; VS = very slow, > 15s. It counts as functional, organism-based.
The species entered for data set [16] is Mus musculus. Briefly: Duration of analgesic action in mice was determined; M = moderate, 5-10 min. Format: functional, organism-based.
Data set [17] is filed under the species Mus musculus. Briefly: Hypnotic activity was measured as dose which causes loss of righting reflex for a minimum period of 30s in 50% of mice; Range is 30-40. It counts as functional.
The species named for data set [18] is Mus musculus. Briefly: Hypnotic activity was measured as dose which causes loss of righting reflex for a minimum period of 30s in 50% of mice; Range is 80-100. Format: functional.
Data set [19] is filed under the species Mus musculus. In words: Hypnotic activity was measured as dose which causes loss of righting reflex for a minimum period of 30s in 50% of mice; Range is 5-10. It counts as functional.
Data set [20] is described as follows: Acute toxicity measured as median lethal dose in mice; Range is 40-60. Format: organism-based. The following applies: mouse, in vivo.
A short description of data set [21]: Acute toxicity measured as median lethal dose in mice; Range is 160-180. The settings on record: mouse, in vivo. It counts as organism-based.

Turning to `CCCc1cccc(CCC)c1O`, in the data set listed under Mus musculus [1], the HD50 is 20 mg/kg. Also, in the data set filed under Mus musculus [2], the Duration of action result is recorded as “Brief duration”. Besides, in the data set filed under Mus musculus [3], the Speed of induction result is listed as “Immediate”. In data set [4], this molecule gave an LD50 of 100 mg/kg.

Regarding `CCCC(C)c1cccc(C(C)C)c1O` (stereo unspecified), the Speed of induction entry in the data set listed under Mus musculus [5] was “Slow”. Also, the Duration of action result in the data set filed under Mus musculus [6] is “Long”. The molecule also registered an HD50 in the data set listed under Mus musculus [7] of 10 mg/kg. Moreover, in [4], the LD50 turned out to be 80 mg/kg.

Turning to `Cc1cc(C(C)C)c(O)c(C(C)C)c1`, in [8], the LD50 is 80 mg/kg. The HD50 in the data set filed under Mus musculus [9] turned out to be 20 mg/kg.

In data set [4], `CCc1ccc(O)c(C(C)C)c1` showed an LD50 of 120 mg/kg. This molecule also returned an HD50 in the data set filed under Mus musculus [9] of 40 mg/kg.

`CCC(C)c1ccc(O)c(C(C)CC)c1` (stereo unspecified) came in with an HD50 in the data set listed under Mus musculus [1] of 20 mg/kg. Besides, the LD50 in data set [4] worked out at 120 mg/kg.

The molecule `Cc1cccc(C)c1O` came in with an HD50 in the data set filed under Mus musculus [1] of 20 mg/kg. The Duration of action entry in the data set listed under Mus musculus [2] is on record as “Brief duration”. For the same molecule, the Speed of induction result in the data set listed under Mus musculus [3] is “Immediate induction”.

The molecule `Oc1ccccc1` [PHENOL] registered an LD50 in [4] of 100 mg/kg. In addition, in the data set filed under Mus musculus [9], the HD50 worked out at 70 mg/kg.

With `CCCC(C)c1cccc(CC)c1O` (stereo unspecified), the HD50 in the data set listed under Mus musculus [10] was determined as 10 mg/kg. For the same molecule, the Duration of action result in the data set listed under Mus musculus [2] was “Brief duration”. Moreover, in the data set listed under Mus musculus [3], the Speed of induction result is recorded as “Immediate”. This molecule came in with an LD50 in [11] of 100 mg/kg.

Consider `Cc1ccc(O)c(C(C)(C)C)c1`, for which the HD50 in the data set filed under Mus musculus [9] is 30 mg/kg.

As for `CCC(C)c1cccc(C2CC2)c1O` (stereo unspecified), the HD50 in the data set listed under Mus musculus [12] amounted to 20 mg/kg. In addition, in the data set listed under Mus musculus [5], the Speed of induction result is given as “Slow”. The Duration of action result in the data set listed under Mus musculus [2] was “Brief duration”. Moreover, the LD50 in [13] is 120 mg/kg.

In the data set listed under Mus musculus [14], `CC(C)(C)c1ccc(O)c(C(C)(C)C)c1` displayed an HD50 of 40 mg/kg. Besides, the LD50 in data set [11] stood at 100 mg/kg.

In turn, `CCCCc1cccc(C(C)CC)c1O` (stereo unspecified) had an HD50 in the data set filed under Mus musculus [1] of 20 mg/kg. For the same molecule, the Speed of induction result in the data set filed under Mus musculus [15] is recorded as “Very slow”. Besides, the Duration of action entry in the data set filed under Mus musculus [16] is given as “Moderate”. Moreover, in [4], the LD50 came out at 120 mg/kg.

In the data set filed under Mus musculus [17], `CC(C)c1ccccc1O` showed an HD50 of 30 mg/kg. Besides, the LD50 in data set [11] amounted to 100 mg/kg.

As for `Cc1cc(C(C)(C)C)c(O)c(C(C)(C)C)c1` [BUTYLATED HYDROXYTOLUENE], the HD50 in the data set filed under Mus musculus [18] stood at 80 mg/kg.

With `CCC(C)c1ccccc1O` (stereo unspecified), in the data set filed under Mus musculus [17], the HD50 was 30 mg/kg.

For `CCCc1cccc(C(C)CC)c1O` (stereo unspecified), the HD50 in the data set listed under Mus musculus [10] was found to be 10 mg/kg. The Speed of induction result in the data set listed under Mus musculus [5] is “Slow”. Moreover, the Duration of action entry in the data set filed under Mus musculus [2] is listed as “Brief duration”. In data set [4], this molecule gave an LD50 of 120 mg/kg.

`CC(C)c1ccc(O)c(C(C)C)c1` came in with an HD50 in the data set listed under Mus musculus [14] of 40 mg/kg. Also, the LD50 in [4] worked out at 120 mg/kg.

For `CCc1cccc(C(C)CC)c1O` (stereo unspecified), in the data set filed under Mus musculus [2], the Duration of action result is “Brief duration”. The molecule also gave an HD50 in the data set listed under Mus musculus [7] of 10 mg/kg. Further, in the data set listed under Mus musculus [3], the Speed of induction result is listed as “Immediate”. Also, the LD50 in data set [4] was determined as 80 mg/kg.

For the molecule `CCC(C)c1cccc(C(C)C)c1O` (stereo unspecified), in the data set filed under Mus musculus [19], the HD50 is 5 mg/kg. Also, in the data set listed under Mus musculus [2], the Duration of action result is recorded as “Brief duration”. The Speed of induction result in the data set filed under Mus musculus [3] is on record as “Immediate”. Also, the LD50 in data set [4] came out at 50 mg/kg.

`CCC(C)c1cccc(C(C)CC)c1O` (stereo unspecified): in the data set listed under Mus musculus [5], the Speed of induction result is on record as “Slow”. Besides, the HD50 in the data set listed under Mus musculus [19] was 5 mg/kg. Further, the Duration of action entry in the data set filed under Mus musculus [16] is listed as “Moderate”. The molecule also returned an LD50 in [4] of 60 mg/kg.

For `CNC1(c2ccccc2Cl)CCCCC1=O.Cl` (stereo unspecified) [KETAMINE HYDROCHLORIDE], the Speed of induction result in the data set listed under Mus musculus [5] is listed as “Slow”. In addition, the Duration of action entry in the data set listed under Mus musculus [2] is “Brief duration”. The HD50 in the data set listed under Mus musculus [7] was determined as 10 mg/kg. In data set [4], this molecule displayed an LD50 of 60 mg/kg.

Take `CC(C)c1ccc(O)cc1`: in data set [20], the LD50 is 40 mg/kg. The molecule also gave an HD50 in the data set filed under Mus musculus [17] of 30 mg/kg.

As to `CCCCC(C)c1cccc(CCC)c1O` (stereo unspecified), the Speed of induction entry in the data set listed under Mus musculus [15] was “Very slow”. For the same molecule, the Duration of action entry in the data set listed under Mus musculus [16] is recorded as “Moderate”. In [4], this molecule gave an LD50 of 140 mg/kg. The same molecule registered an HD50 in the data set listed under Mus musculus [9] of 50 mg/kg.

Consider `CCCCc1cccc(CCC)c1O`, for which, in the data set filed under Mus musculus [12], the HD50 was found to be 20 mg/kg. Moreover, in the data set listed under Mus musculus [15], the Speed of induction result is recorded as “Very slow”. Besides, the Duration of action result in the data set listed under Mus musculus [2] is listed as “Brief duration”. In data set [11], the LD50 amounted to 100 mg/kg.

In turn, `Cc1cccc(C(C)(C)C)c1O` displayed an HD50 in the data set listed under Mus musculus [14] of 40 mg/kg. In addition, in the data set filed under Mus musculus [2], the Duration of action entry is “Brief duration”. Besides, the Speed of induction entry in the data set filed under Mus musculus [3] is “Immediate induction”. This molecule also yielded an LD50 in data set [13] of 120 mg/kg.

As for `Cc1cc(C)c(C(C)C)c(O)c1C(C)C`, the LD50 in [21] is 160 mg/kg. The molecule further gave an HD50 in the data set filed under Mus musculus [9] of 120 mg/kg.
